From patent publication US20250326744A1, “PIPERAZINE DERIVATIVE OR SALT THEREOF, AND PHARMACEUTICAL COMPOSITION” (priority 2022, published 2025)
Structures can show the parent of a compound that is named as a salt.

Tests used:
mexB (PA) strain = test: Combinational effect with antibacterial agent against Pseudomonas aeruginosa (Test Examples 2 and 4): mexB (PA) strain with LVFX, TC or AZT at 1/4 MIC, EC99; type: cell-based; settings: for EC99, mexB (PA), AZT / EC99, mexB (PA), LVFX / EC99, mexB (PA), TC: Table 52, Test Example 2, 16 to 20 hours culture, OD595; for EC99, mexB (PA), AZT / EC99, combinational effect with AZT, mexB (PA): combined with AZT at 1/4 MIC; for EC99, mexB (PA), LVFX / EC99, combinational effect with LVFX, mexB (PA): combined with LVFX at 1/4 MIC; for EC99, mexB (PA), TC / EC99, combinational effect with TC, mexB (PA): combined with TC at 1/4 MIC; for EC99, combinational effect with AZT, mexB (PA) / EC99, combinational effect with LVFX, mexB (PA) / EC99, combinational effect with TC, mexB (PA): mexB (PA) strain, Test Example 4
Procedure, shortened: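 EC99 denotes the minimum test-compound concentration (range 0–800 μM) that suppresses ≥99% of growth, measured by OD595, when combined with ¼ MIC levofloxacin (LVFX), tetracycline or aztreonam. The efflux-pump mutant mexB (PA), expressing mainly MexAB-OprM, was inoculated at 10^4–5 CFU/well in CAMHB for 16–20 h.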

S-3769 strain = test: Combinational effect with antibacterial agent against Pseudomonas aeruginosa (Test Examples 2 and 4): S-3769 strain with AMK or GM at 1/4 MIC, EC99; type: cell-based; settings: for EC99, S-3769 strain, AMK / EC99, S-3769 strain, GM: Table 52, Test Example 2, 16 to 20 hours culture, OD595; for EC99, S-3769 strain, AMK / EC99, combinational effect with AMK, S-3769 strain: combined with AMK at 1/4 MIC; for EC99, S-3769 strain, GM / EC99, combinational effect with GM, S-3769 strain: combined with GM at 1/4 MIC; for EC99, combinational effect with AMK, S-3769 strain / EC99, combinational effect with GM, S-3769 strain: Test Example 4
Procedure, shortened: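 EC99, the lowest test-compound concentration inhibiting growth by ≥99% (OD595), was measured with aminoglycoside AMK or GM held at ¼ MIC. Strain S-3769, a MexY-overexpressing clinical isolate, was cultured in CAMHB at 10^4 to 5 CFU/well for 16–20 h; compound range 0–800 μM.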

Structure (SMILES)	EC99, mexB (PA), AZT (mexB (PA) strain)	EC99, mexB (PA), LVFX (mexB (PA) strain)	EC99, mexB (PA), TC (mexB (PA) strain)	EC99, S-3769 strain, AMK (S-3769 strain)	EC99, S-3769 strain, GM (S-3769 strain)	EC99, combinational effect with AZT, mexB (PA) (mexB (PA) strain)	EC99, combinational effect with LVFX, mexB (PA) (mexB (PA) strain)	EC99, combinational effect with TC, mexB (PA) (mexB (PA) strain)	EC99, combinational effect with AMK, S-3769 strain (S-3769 strain)	EC99, combinational effect with GM, S-3769 strain (S-3769 strain)
CCOc1cccc(F)c1CN1CCN(C(=O)[C@H](N)C2CCN(CCc3c(Cl)cccc3-c3ccccc3)CC2)CC1 [Example 53, Hydrobromide of (R)-2-amino-2-(1-(2-(3-chloro-[1,1′-biphenyl]-2-yl)ethyl)piperidin-4-yl)-1-(4-(2-ethoxy-6-fluorobenzyl)piperazin-1-yl)ethan-1-one]	B (25 μM<EC99≤100 μM)	B (25 μM<EC99≤100 μM)	B (25 μM<EC99≤100 μM)	S (EC99≤12.5 μM)	S (EC99≤12.5 μM)	–	–	–	–	–
COc1cccc(O)c1CN1CCN(C(=O)[C@H](N)C2CCN(CCc3cc(Cl)ccc3-c3ccccc3)CC2)CC1 [Example 575, Hydrochloride of (R)-2-amino-2-(1-(2-(4-chloro-[1,1-biphenyl]-2-yl)ethyl)piperidin-4-yl)-1-(4-(2-hydroxy-6-methoxybenzyl)piperazin-1-yl) ethan-1-one]	–	–	–	–	–	S (EC99≤12.5 μM)	S (EC99≤12.5 μM)	A (12.5 μM<EC99≤25 μM)	A (12.5 μM<EC99≤25 μM)	A (12.5 μM<EC99≤25 μM)
CCOc1ccc(F)c(F)c1CN1CCN(C(=O)[C@H](N)C2CCN(CCc3cc(Cl)ccc3-c3ccccc3)CC2)CC1 [Example 35, Hydrobromide of (R)-2-amino-2-(1-(2-(4-chloro-[1,1′-biphenyl]-2-yl)ethyl)piperidin-4-yl)-1-(4-(6-ethoxy-2,3-difluorobenzyl)piperazin-1-yl)ethan-1-one]	B (25 μM<EC99≤100 μM)	C (100 μM<EC99)	B (25 μM<EC99≤100 μM)	S (EC99≤12.5 μM)	S (EC99≤12.5 μM)	–	–	–	–	–
CCSc1cc(F)ccc1CN1CCN(C(=O)[C@H](N)C2CCN(CCc3cc(Cl)ccc3-c3cccc(N)c3)CC2)CC1 [Example 544, hydrobromide of (R)-2-amino-2-(1-(2-(3′-amino-4-chloro-[1,1′-biphenyl]-2-yl)ethyl)piperidin-4-yl)-1-(4-(2-(ethylthio)-4-fluorobenzyl)piperazin-1-yl)ethan-1-one]	–	–	–	–	–	S (EC99≤12.5 μM)	S (EC99≤12.5 μM)	S (EC99≤12.5 μM)	A (12.5 μM<EC99≤25 μM)	S (EC99≤12.5 μM)
CCOc1cccc(F)c1CN1CCN(C(=O)[C@H](N)C2CCN(CCc3cc(Cl)ccc3-c3cccnc3)CC2)CC1 [Example 73, Hydrobromide of (R)-2-amino-2-(1-(5-chloro-2-(pyridin-3-yl)phenethyl)piperidin-4-yl)-1-(4-(2-ethoxy-6-fluorobenzyl)piperazin-1-yl)ethan-1-one]	A (12.5 μM<EC99≤25 μM)	C (100 μM<EC99)	B (25 μM<EC99≤100 μM)	S (EC99≤12.5 μM)	S (EC99≤12.5 μM)	–	–	–	–	–
CCOc1cccc(F)c1CN1CCN(C(=O)[C@H](N)C2CCN(CCc3cc(O)ccc3-c3ccccc3)CC2)CC1 [Example 596, Hydrochloride of (R)-2-amino-1-(4-(2-ethoxy-6-fluorobenzyl)piperazin-1-yl)-2-(1-(2-(4-hydroxy-[1,1′-biphenyl]-2-yl)ethyl)piperidin-4-yl)ethan-1-one]	–	–	–	–	–	C (100 μM<EC99)	B (25 μM<EC99≤100 μM)	B (25 μM<EC99≤100 μM)	S (EC99≤12.5 μM)	A (12.5 μM<EC99≤25 μM)
CCOc1cccc(F)c1CN1CCN(C(=O)[C@H](N)C2CCN(CCc3csc4ccccc34)CC2)CC1 [Example 150, Hydrobromide of (R)-2-amino-2-(1-(2-(benzo[b]thiophen-3-yl)ethyl)piperidin-4-yl)-1-(4-(2-ethoxy-6-fluorobenzyl)piperazin-1-yl)ethan-1-one]	B (25 μM<EC99≤100 μM)	C (100 μM<EC99)	B (25 μM<EC99≤100 μM)	S (EC99≤12.5 μM)	S (EC99≤12.5 μM)	–	–	–	–	–
CCSc1cc(F)ccc1CN1CCN(C(=O)[C@H](N)C2CCN(CCc3cc(Cl)ccc3-c3ccccc3O)CC2)CC1 [Example 594, Hydrochloride of (R)-2-amino-2-(1-(2-(4-chloro-2′-hydroxy-[1,1-biphenyl]-2-yl)ethyl)piperidin-4-yl)-1-(4-(2-(ethylthio)-4-fluorobenzyl)piperazin-1-yl) ethan-1-one]	–	–	–	–	–	S (EC99≤12.5 μM)	A (12.5 μM<EC99≤25 μM)	S (EC99≤12.5 μM)	S (EC99≤12.5 μM)	A (12.5 μM<EC99≤25 μM)
CCOc1cccc(F)c1CN1CCN(C(=O)[C@H](N)C2CCN(CCc3cscc3-c3ccccc3)CC2)CC1 [Example 540, Hydrobromide of (R)-2-amino-1-(4-(2-ethoxy-6-fluorobenzyl)piperazin-1-yl)-2-(1-(2-(4-phenylthiophen-3-yl)ethyl)piperidin-4-yl)ethan-1-one]	–	–	–	–	–	C (100 μM<EC99)	B (25 μM<EC99≤100 μM)	B (25 μM<EC99≤100 μM)	A (12.5 μM<EC99≤25 μM)	A (12.5 μM<EC99≤25 μM)
CCOc1cccc(F)c1CN1CCN(C(=O)[C@H](N)C2CCN(CCC3CCCc4ccccc43)CC2)CC1 (stereo partly drawn) [Example 151, Hydrobromide of (2R)-2-amino-1-(4-(2-ethoxy-6-fluorobenzyl)piperazin-1-yl)-2-(1-(2-(1,2,3,4-tetrahydronaphthalen-1-yl)ethyl)piperidin-4-yl)ethan-1-one]	C (100 μM<EC99)	C (100 μM<EC99)	C (100 μM<EC99)	B (25 μM<EC99≤100 μM)	B (25 μM<EC99≤100 μM)	–	–	–	–	–
CCOc1cccc(F)c1CN1CCN(C(=O)[C@H](N)C2CCN(CCc3cc(Cl)ccc3-c3cccc(C#N)c3)CC2)CC1 [Example 65, Hydrobromide of (R)-2′-(2-(4-(1-amino-2-(4-(2-ethoxy-6-fluorobenzyl)piperazin-1-yl)-2-oxoethyl)piperidin-1-yl)ethyl)-4′-chloro-[1,1′-biphenyl]-3-carbonitrile]	B (25 μM<EC99≤100 μM)	C (100 μM<EC99)	B (25 μM<EC99≤100 μM)	A (12.5 μM<EC99≤25 μM)	A (12.5 μM<EC99≤25 μM)	–	–	–	–	–
CSc1ccccc1CN1CCN(C(=O)[C@H](N)C2CCN(CCc3cc(Cl)ccc3-c3cc(O)ccc3F)CC2)CC1 [Example 612, (R)-2-amino-2-(1-(2-(4-chloro-2′-fluoro-5′-hydroxy-[1,1′-biphenyl]-2-yl)ethyl)piperidin-4-yl)-1-(4-(2-(methylthio)benzyl)piperazin-1-yl)ethan-1-one]	–	–	–	–	–	S (EC99≤12.5 μM)	S (EC99≤12.5 μM)	S (EC99≤12.5 μM)	S (EC99≤12.5 μM)	S (EC99≤12.5 μM)
CCOc1cccc(F)c1CN1CCN(C(=O)[C@H](N)C2CCN(CCc3cc(Cl)ccc3-c3cccc(O)c3)CC2)CC1 [Example 100, (R)-2-amino-2-(1-(2-(4-chloro-3′-hydroxy-[1,1′-biphenyl]-2-yl)ethyl)piperidin-4-yl)-1-(4-(2-ethoxy-6-fluorobenzyl)piperazin-1-yl)ethan-1-one]	A (12.5 μM<EC99≤25 μM)	A (12.5 μM<EC99≤25 μM)	A (12.5 μM<EC99≤25 μM)	S (EC99≤12.5 μM)	S (EC99≤12.5 μM)	–	–	–	–	–
